PMC4627311, “Marine alkaloid Monanchocidin a overcomes drug resistance by induction of autophagy and lysosomal membrane permeabilization” (Oncotarget, 2015)
Where two headings read alike, the source gives them in different places.

Legend:
[1] = test system: NCCIT-R cells
Procedure: (§6) F, Effect of MonA in combination with cisplatin on NCCIT-R cells, examined by the MTT assay. Cells were co-treated with different concentrations of the single substances or their combination for 48 h at a constant molar ratio. The combinational index (CI) values were calculated with CompuSyn software. The ratio of the substances is C(MonA) : C(cisplatin) = 1.2 : 10.
(§7) Co-treatment of MonA and the indicated inhibitors for 48 h was performed. The combinational index (CI) values were calculated with the CompuSyn software for the Fa (fraction affected) = 0.5.
(§8) Determination of synergistic or antagonistic drug effects in combination assays was performed using the Chou-Talalay method [20]. Data were generated by MTT assay. The combinational index (CI) was calculated for the constant drugs ratio with the CompuSyn v.1.0. software (ComboSyn, Inc., Paramus, NJ, USA). Synergism is defined as a CI < 1, whereas antagonism is defined by a CI > 1. The MTT assay was used to examine the combination of MonA at the IC50 with defined inhibitors of autophagy or LMP, or with the IC50 of cisplatin. […] All experiments were performed in triplicates and were repeated at least three times.
MonA : z-VAD-fmk 1.2 µM : 100 µM
MonA : calpeptine 1.2 µM : 50 µM
MonA : leupeptine 1.2 µM : 100 µM
(§9) MonA : protease inhibitors cocktail 1.2 µM : 0.02 tablet/ml
(cOmplete Mini EDTA-free)

[2] = test system: HUVEC; assay: MTT cytotoxicity assay, HUVEC; type: cell-based; settings: Homo sapiens, non-malignant, 72 h
Source text: (§1) The human prostate cancer cell lines PC3 (docetaxel resistant, androgen-independent), DU145 (docetaxel sensitive, androgen-independent), LNCaP (docetaxel sensitive, androgen-dependent), human bladder cancer cell lines RT112, RT4, 486p, T24, human embryonic kidney cell line HEK 293T, human embilical vascular endothelium cell line HUVEC, as well as human fibroblast cell lines MRC-5 and MRC-9 were obtained from ATCC (Manassas, VA, USA). The human germ cell tumor cancer cell line NCCIT was obtained from DSMZ (Braunschweig, Germany). TCam-2 and 2102EP cells were kindly provided by Prof. L. Looijenga (Rotterdam, The Netherlands). The cisplatin-resistant sublines NCCIT-R and 2102EP-R have been generated as reported before. Cells were cultured according to the manufacturers instructions (culture conditions are described in the supplementary). Cells were continuously kept in culture for a maximum of 3 months, and were routinely inspected microscopically for stable phenotype and regularly checked for contamination with mycoplasma. Cell line authentication was performed by DSMZ (Braunschweig, Germany) using highly polymorphic short tandem repeat loci.
(§2) The in vitro cytotoxicity of individual substances and drug combinations was evaluated using the MTT (3-(4,5-dimethylthiazol-2-yl)-2,5-diphenyltetrazolium bromide) assay, which was performed as previously described.

[3] = test system: 486p; assay: MTT cytotoxicity assay, 486p; type: cell-based, human; settings: bladder cancer, 72 h
Source text: as §1, §2

[4] = test system: HeLa; set-up: method as in PMID 20804151; settings: cited from earlier work
[5] = test system: 2102EP-R; assay: MTT cytotoxicity assay, 2102EP-R; type: cell-based, human; settings: cisplatin-resistant GCT, 72 h
Source text: as §1, §2

[6] = test system: 2102EP; assay: MTT cytotoxicity assay, 2102EP; type: cell-based, human; settings: cisplatin-sensitive GCT, 72 h
Source text: as §1, §2

[7] = test system: HL-60; set-up: method as in PMID 20804151; settings: cited from earlier work
[8] = test system: HEK 293T; assay: MTT cytotoxicity assay, HEK 293T; type: cell-based; settings: Homo sapiens, non-malignant, 72 h
Source text: as §1, §2

[9] = test system: RT4; assay: MTT cytotoxicity assay, RT4; type: cell-based, human; settings: 72 h
Source text: as §1, §2

[10] = test system: NCCIT-R cells; assay: Western blotting / PAGE of protein extracts; type: cell-based, human; settings: for Expression of LC3B-II (marker of autophagy): MonA 0.25 – 2 μM long-term or 20 – 50 μM short-term, reference drugs 48 h
Procedure: (§3) Figure 3 Effect of MonA on activation of MAPK and protein degradation A, NCCIT-R cells were analyzed after treatment with MonA for 1 h by Western blotting. Cells treated with 50 μM of anisomycin for 1 h (Aniso) were used as a positive control for MAPK activation. […] C, Analysis of NCCIT-R cells treated with 1 μM of MonA for 1 h. […] Two samples of the spot were randomly picked from the area between ~5 kDa and ~1 kDa, followed by trypsination and identification of peptides by tandem mass spectrometry. D, Analysis of NCCIT-R cells treated with 20 μM of MonA for 1-3 h. Cleavage of PARP and caspase-3 were investigated as hallmarks of apoptosis. Cells treated with 10 μM of cisplatin (CP) for 48 h were used for comparison of the effects of a classical cytotoxic agent. E, Analysis of non-malignant HEK 293T cells treated with 0.0625 – 1 μM of MonA for 48 h.
Figure 5 Effect of cytotoxic compounds on NCCIT-R cells A, NCCIT-R cells were treated with docetaxel, anisomycin, or cisplatin for 48 h. The effect on markers of apoptosis (cleavage of PARP and caspase-3) and autophagy (LC3B-II) were analyzed using Western blotting. While all show induction of apoptosis, expression of LC3B-II is not increased after treatment with these substances. B, Microphotographs of NCCIT-R cells treated with cisplatin or MonA for 48 h show morphological changes induced by the substances. The pictures were made at x100 magnification. Each bar represents 50 μm.
(§4) Preparation of protein extracts and Western blotting were performed as described previously with slight modifications. In brief, 1 × 10^6 cells/well were seeded in Petri dishes (ø 6 cm, 5 mL/dish). Cells were harvested, proteins were extracted, subjected to electrophoresis in 10-15% SDS-polyacrylamide gels at 120 V, and transferred from gel to a 0.2 μm pore PVDF membrane. The membrane was blocked and incubated with the primary antibody according to the manufacturer's protocol (for antibodies used, see the supplementary). After washing, the membranes were incubated with the corresponding secondary antibody for 1 h at RT. Signals were detected using the ECL chemiluminescence system (Thermo Scientific, Rockford, IL, USA) according to the manufacturer's protocol.
SDS-polyacrylamide gels were prepared as described above. Dye-free loading buffer was used for the protein samples preparation. Gels were fixed and stained with colloidal Coomassie Blue overnight, destained, and digitalized as previously described.

[11] = test system: NCCIT-R cells; assay: Detection of cathepsin B release; type: cell-based, human; settings: 48 h
Procedure: (§5) Intact lysosomes were observed as organelles emitting red fluorescence (indicated by arrows). Red fluorescence was quantified using Image J software and is graphically depicted by column bars. B, Cells were treated with MonA for 48 h, and immobilized on glass plates. Samples were permeabilized, blocked, labeled with a primary anti-cathepsin B antibody, followed by a secondary Alexa Fluor 488-conjugated antibody labeling, and analyzed using fluorescent microscopy. […] The microphotographs (A, B) were made at x400 and x100 magnifications. Each bar represents 50 μm.
To assess release of cathepsin B into the extracellular space, NCCIT-R cells were pre-incubated overnight in 6-well plates (2 × 10^5 cells/well), and were then treated with MonA for 48 h. After trypsination, cells were immobilized on glass slides using the cytospin method and dried overnight. Cells were fixed with 2% (w/v) PFA/PBS, washed with PBS and permeabilized with 0.1% (v/v) Triton X-100 solution in 2% (v/v) normal goat serum/PBS for 30 min. […] Then, samples were washed with PBS, covered with DAPI-based ProLong® Gold reagent (Life Technologies) and directly analyzed with AxioScope.A1 (Carl Zeiss) microscope and with the AxioVision40 V4.8 software (Carl Zeiss Imaging Solutions).

[12] = test system: DU145; assay: MTT cytotoxicity assay, DU145; type: cell-based; settings: Homo sapiens, DU-145, DU145, prostate cancer, 72 h
Source text: as §1, §2

[13] = test system: MRC-5; assay: MTT cytotoxicity assay, MRC-5; type: cell-based; settings: Homo sapiens, MRC5, MRC-5, non-malignant, 72 h
Source text: as §1, §2

[14] = test system: LNCaP; assay: MTT cytotoxicity assay, LNCaP; type: cell-based; settings: Homo sapiens, prostate cancer, 72 h
Source text: as §1, §2

[15] = test system: NCCIT; assay: MTT cytotoxicity assay, NCCIT; type: cell-based, human; settings: cisplatin-sensitive GCT, 72 h
Source text: as §1, §2

[16] = test system: PC3; assay: MTT cytotoxicity assay, PC3; type: cell-based; settings: Homo sapiens, PC-3, PC3, prostate cancer, 72 h
Source text: as §1, §2

[17] = test system: T24; assay: MTT cytotoxicity assay, T24; type: cell-based, human; settings: 72 h
Source text: as §1, §2

[18] = test system: NCCIT-R cells; assay: Drug combination MTT assay, Chou-Talalay method (CI)
Procedure: as §6, §7, §8
MonA : z-VAD-fmk 1.2 µM : 100 µM
MonA : calpeptine 1.2 µM : 50 µM
MonA : leupeptine 1.2 µM : 100 µM
as §9
(cOmplete Mini EDTA-free)

[19] = test system: NCCIT-R cells; assay: Acridine orange staining of lysosomes (LMP); type: cell-based, human
Procedure: as §5
NCCIT-R cells were pre-incubated overnight in 8-chamber glass slides (5 × 10^4 cells/chamber). The medium was changed with medium containing different concentrations of the substances examined, and cells were treated for 60 min. Then cells were washed twice with PBS solution, stained with 0.5 μg/mL of acridine orange/PBS for 15 min at 37°C, covered with DAPI-based ProLong® Gold reagent (Life Technologies, Eugene, OR, USA), and immediately analyzed with AxioScope.A1 (Carl Zeiss) microscope and with the AxioVision40 V4.8 software (Carl Zeiss Imaging Solutions, Göttingen, Germany). Red fluorescence measurements and quantification were performed with Image J software (NIH, Bethesda, USA).

[20] = test system: prostate cancer cells; assay: Western blotting of LC3B-II in prostate cancer cells; type: cell-based, human; settings: 48 h
Procedure: as §4

[21] = test system: THP-1; set-up: method as in PMID 20804151; settings: cited from earlier work
[22] = test system: TCam-2; assay: MTT cytotoxicity assay, TCam-2; type: cell-based, human; settings: TCam-2, cisplatin-sensitive GCT, 72 h
Source text: as §1, §2

[23] = test system: NCCIT-R; assay: MTT cytotoxicity assay, NCCIT-R; type: cell-based, human
Source text: as §1, §2

[24] = test system: MRC-9; assay: MTT cytotoxicity assay, MRC-9; type: cell-based; settings: Homo sapiens, MRC9, MRC-9, non-malignant, 72 h
Source text: as §1, §2

[25] = test system: HEK 293T cells; assay: Western blotting / PAGE, protein degradation in non-malignant cells; type: cell-based, human; settings: non-malignant HEK 293T, 0.0625 – 1 μM, 48 h
Procedure: as §3
Preparation of protein extracts and Western blotting were performed as described previously with slight modifications. In brief, 1 × 10^6 cells/well were seeded in Petri dishes (ø 6 cm, 5 mL/dish). Cells were harvested, proteins were extracted, subjected to electrophoresis in 10-15% SDS-polyacrylamide gels at 120 V, and transferred from gel to a 0.2 μm pore PVDF membrane. […] Signals were detected using the ECL chemiluminescence system (Thermo Scientific, Rockford, IL, USA) according to the manufacturer's protocol. […]

[26] = test system: RT112; assay: MTT cytotoxicity assay, RT112; type: cell-based, human; settings: 72 h
Source text: as §1, §2

z-VAD(OMe)-fmk [z-VAD-fmk]
Effect of inhibitor on cytotoxicity of MonA (combinational index) [1]: moderate antagonistic effect

CC/C=C/[C@@H]1CC[C@]2(C[C@H]3CC[C@H]4[C@@H](C(=O)OC(CC)CCCCCCCCCCCCC[C@@H]5O[C@](O)(CCN)[C@H](O)N(CCCN)C5=O)[C@@]5(CCC[C@H](C)O5)NC(=[N+]34)N2)O1 (stereo partly drawn) [MonA, Monanchocidin A]
IC50 [2]: 838 nM
IC50 ([3]; Homo sapiens): 273 nM
Cytotoxic activity [4]: micro- and nanomolar concentrations
IC50 ([5]; Homo sapiens): 306 nM
IC50 ([6]; Homo sapiens): 341 nM
Cytotoxic activity [7]: micro- and nanomolar concentrations
IC50 [8]: 670 nM
IC50 ([9]; Homo sapiens, RT-4, RT4, bladder cancer): 580 nM
Activation of MAPK (p38, ERK, JNK) ([10]; 50 μM, 1 h, Western blotting): Activation of p38 and ERK, but not JNK
Expression of LC3B-II (marker of autophagy) ([10]; Western blotting): up-regulation of LC3B-II
Protein degradation ([10]; short term 30 μM - 50 μM or long-term 0.5 μM - 2 μM): Degradation of different proteins was observed
Concentration at which release of cathepsin B into the extracellular space occurred [11]: ≥ 2 µM
IC50 [12]: 482 nM
IC50 [13]: 756 nM
IC50 [14]: 265 nM
IC50 ([15]; Homo sapiens): 210 nM
IC50 [16]: 420 nM
IC50 ([17]; Homo sapiens, T-24, T24, bladder cancer): 413 nM
Effect of MonA in combination with cisplatin (combinational index) ([18]; 48 h co-treatment, C(MonA) : C(cisplatin) = 1.2 : 10): strong synergistic effects
Lysosomal membrane permeabilization (acridine orange fluorescence) [19]: disappearance of red fluorescence coupled with increased green fluorescence
Expression of LC3B-II (marker of autophagy) [20]: up-regulation of LC3B-II
Cytotoxic activity [21]: micro- and nanomolar concentrations
IC50 ([22]; Homo sapiens): 440 nM
IC50 ([23]; Homo sapiens, 48 h of treatment): 500 to 1000 nM
IC50 ([23]; Homo sapiens, cisplatin-resistant GCT, 72 h, MTT): 253 nM
IC50 [24]: 708 nM
Protein degradation [25]: did not reveal any signs of protein degradation
IC50 ([26]; Homo sapiens, RT-112, RT112, bladder cancer): 263 nM

CC(=O)O[C@@]12CO[C@@H]1C[C@H](O)[C@@]1(C)C(=O)[C@H](O)C3=C(C)[C@@H](OC(=O)[C@H](O)[C@@H](NC(=O)OC(C)(C)C)c4ccccc4)C[C@@](O)([C@@H](OC(=O)c4ccccc4)[C@H]21)C3(C)C [docetaxel]
Markers of apoptosis (cleavage of PARP and caspase-3) ([10]; Western blotting): increase of markers of apoptosis
Expression of LC3B-II (marker of autophagy) ([10]; Western blotting): None of the drugs revealed an up-regulation of LC3B-II

Cn1cnc(N)c2ncnc1-2 [3-MA, 3-methyladenine, reference compound]
Effect of inhibitor on cytotoxicity of MonA (combinational index) ([18]; 48 h, MTT, CI at Fa = 0.5, ratios in Table S3): most pronounced antagonistic effect

COc1ccc(C[C@H]2NC[C@H](O)[C@H]2OC(C)=O)cc1 [anisomycin, Anisomycin]
Markers of apoptosis (cleavage of PARP and caspase-3) ([10]; Western blotting): increase of markers of apoptosis
Expression of LC3B-II (marker of autophagy) ([10]; Western blotting): None of the drugs revealed an up-regulation of LC3B-II

N.N.[Cl][Pt][Cl] [Cisplatin, cis-diamminedichloroplatinum (II), reference compound]
IC50 [3]: 20800 nM
IC50 [5]: 4930 nM
IC50 [6]: 644 nM
IC50 ([9]; RT4, bladder cancer): 11900 nM
Markers of apoptosis (cleavage of PARP and caspase-3) ([10]; Western blotting): increase of markers of apoptosis
Expression of LC3B-II (marker of autophagy) ([10]; Western blotting): None of the drugs revealed an up-regulation of LC3B-II
IC50 [15]: 1560 nM
IC50 ([17]; T24, bladder cancer): 9070 nM
IC50 [22]: 2480 nM
IC50 ([23]; cisplatin-resistant GCT, 72 h, MTT): 8930 nM
IC50 ([26]; RT112, bladder cancer): 8990 nM
